# Experimental data from publication PMC9146984, “A Novel Proline-Rich Cathelicidin from the Alpaca Vicugna pacos with Potency to Combat Antibiotic-Resistant Bacteria: Mechanism of Action and the Functional Role of the C-Terminal Region” (Membranes, 2022).
# Read-outs that look alike come from different tables or passages of the source. Where a SMILES comes first, the peptide text is derived from it. Bridges are numbered along the chain shown (N, C = ends). [ ]: non-standard residue; d: D form. The star is where a group is joined. X1 = CC[C@H](C)CCCCC(=O)*; Dab = NCC[C@H](N)C(=O)O
# Tests used:
# E. coli MDR CI 1057 = settings: Mueller-Hinton broth supplemented with 0.9% NaCl
# Procedure: (§1) Bacterial test cultures were grown in the Mueller-Hinton broth (MH; Sigma, St. Louis, MO, USA) at 37 °C to mid-log phase and then diluted with the 2× MH medium supplemented with 1.8% NaCl or without salt so that to reach a final cell concentration of 10^6 CFU/mL. 50 µL of the obtained bacterial suspension were added to aliquots of 50 µL of the peptide solutions serially diluted with sterilized 0.1% bovine serum albumin (BSA) in 96-well flat-bottom polystyrene microplates (Eppendorf #0030730011, Hamburg, Germany). […] To verify MIC values, the respiratory activity of the bacteria was determined. Briefly, 20 µL of 0.1 mg/mL resazurin (a redox indicator; Sigma, St. Louis, MO, USA) was added to the wells after 24 h of incubation, and the plate was incubated for an additional two hours. The reduction of resazurin to resorufin was measured. […] The results were expressed as the median values determined based on at least three independent experiments performed in triplicate.
# (§2) Resistance induction experiments were performed using the previously described method. Briefly, on day one, the overnight culture of wild-type bacteria was diluted with the 2× MH broth supplemented with 1.8% NaCl to reach a final cell concentration of 10^6 CFU/mL. 50 µL of the obtained bacterial suspension were added to aliquots of 50 µL of the peptide solutions serially diluted with the sterilized 0.1% BSA in 96-well flat-bottom polystyrene microplates. After incubation for 20 ± 2 h at 37 °C and 950 rpm, MICs were determined as described above. For each subsequent daily transfer, 2–4 μL of the inoculum taken from the first well containing a sub-inhibitory drug concentration were diluted with 2 mL of the fresh 2× MH broth supplemented with 1.8% NaCl. […] 14 repeated passages in the presence of antimicrobial agents were made for each bacterial strain during the experiment. Bacteria that grew at the highest concentration of AMPs on the final day were passaged a further 3 times on drug-free agar plates before determining the final MIC value.
# [1] = system: VicBac[1–22]-resistant E. coli MDR 1057 strain; settings: Mueller-Hinton broth supplemented with 0.9% NaCl; strain selected 14 days with VicBac[1-22]; cross-resistance
# Procedure: as §1, §2
# E. coli MDR 1057 = settings: MH broth with 0.9% NaCl, 14 passages with the same agent (VicBac[1–22]: after 10 passages)
# Procedure: Resistance induction experiments were performed using the previously described method. Briefly, on day one, the overnight culture of wild-type bacteria was diluted with the 2× MH broth supplemented with 1.8% NaCl to reach a final cell concentration of 10^6 CFU/mL. 50 µL of the obtained bacterial suspension were added to aliquots of 50 µL of the peptide solutions serially diluted with the sterilized 0.1% BSA in 96-well flat-bottom polystyrene microplates. After incubation for 20 ± 2 h at 37 °C and 950 rpm, MICs were determined as described above. For each subsequent daily transfer, 2–4 μL of the inoculum taken from the first well containing a sub-inhibitory drug concentration were diluted with 2 mL of the fresh 2× MH broth supplemented with 1.8% NaCl. […] Bacteria that grew at the highest concentration of AMPs on the final day were passaged a further 3 times on drug-free agar plates before determining the final MIC value.
# E. coli BW25113 ΔmdtM = type: cell-based, Escherichia coli; settings: Mueller–Hinton broth, 24 h, 37 °C, median
# Procedure: (§3) The reduction of resazurin to resorufin was measured.
# E. coli BW25113 ΔompF = type: cell-based, Escherichia coli; settings: Mueller–Hinton broth, 24 h, 37 °C, median
# Procedure: as §3
# E. coli BW25113 ΔsbmA = type: cell-based, Escherichia coli; settings: Mueller–Hinton broth, 24 h, 37 °C, median
# Procedure: as §3
Structure (SMILES),Minimum inhibitory concentration E.coli MDR 1057 14 days w/o AMP (E. coli MDR CI 1057; after 14 passages without antimicrobial agents),Minimum inhibitory concentration E.coli MDR 1057 0 days (E. coli MDR CI 1057; before passages),Minimum inhibitory concentration E.coli MDR 1057 14 days with VicBac [1-22] [1],increase in MIC value after serial passage selection (E. coli MDR 1057),"Minimum inhibitory concentration, E. coli strain ΔmdtM (E. coli BW25113 ΔmdtM; 0.9% NaCl: +)","Minimum inhibitory concentration, E. coli strain ΔmdtM (E. coli BW25113 ΔmdtM; 0.9% NaCl: −)","Minimum inhibitory concentration, E. coli strain ΔompF (E. coli BW25113 ΔompF; 0.9% NaCl: +)","Minimum inhibitory concentration, E. coli strain ΔompF (E. coli BW25113 ΔompF; 0.9% NaCl: −)","Minimum inhibitory concentration, E. coli strain ΔsbmA (E. coli BW25113 ΔsbmA; 0.9% NaCl: +)","Minimum inhibitory concentration, E. coli strain ΔsbmA (E. coli BW25113 ΔsbmA; 0.9% NaCl: −)"
"CC[C@H](C)CCCCC(=O)N[C@@H](CCN)C(=O)N[C@H](C(=O)N[C@@H](CCN)C(=O)N[C@H]1CCNC(=O)[C@H]([C@@H](C)O)NC(=O)[C@H](CCN)NC(=O)[C@H](CCN)NC(=O)[C@H](CC(C)C)NC(=O)[C@@H](Cc2ccccc2)NC(=O)[C@H](CCN)NC1=O)[C@@H](C)O [Polymyxin B, polymyxin B] (X1-[Dab]T[Dab][Dab][Dab][dF]L[Dab][Dab]T; lactam 4-C (inferred); N-terminus assumed)",0.125 µM,0.125 µM,1 µM,128 fold,–,–,–,–,–,–
CC[C@H](C)[C@H](NC(=O)[C@H](CCCNC(=N)N)NC(=O)[C@@H](N)CCCNC(=N)N)C(=O)N[C@@H](CCCNC(=N)N)C(=O)N[C@@H](CCCNC(=N)N)C(=O)N1CCC[C@H]1C(=O)N[C@@H](CCCNC(=N)N)C(=O)N[C@@H](CC(C)C)C(=O)N1CCC[C@H]1C(=O)N[C@@H](CCCNC(=N)N)C(=O)N1CCC[C@H]1C(=O)N[C@@H](CCCNC(=N)N)C(=O)N[C@H](C(=O)N1CCC[C@H]1C(=O)O)C(C)C [VicBac[1-14]] (H-RRIRRPRLPRPRVP-OH; N-terminus and C-terminus assumed),–,–,–,–,> 64 µM,32 µM,> 64 µM,64 µM,> 64 µM,64 µM
CC[C@H](C)[C@H](NC(=O)[C@H](CCCNC(=N)N)NC(=O)[C@@H](N)CCCNC(=N)N)C(=O)N[C@@H](CCCNC(=N)N)C(=O)N[C@@H](CCCNC(=N)N)C(=O)N1CCC[C@H]1C(=O)N[C@@H](CCCNC(=N)N)C(=O)N[C@@H](CC(C)C)C(=O)N1CCC[C@H]1C(=O)N[C@@H](CCCNC(=N)N)C(=O)N1CCC[C@H]1C(=O)N[C@@H](CCCNC(=N)N)C(=O)N[C@H](C(=O)N1CCC[C@H]1C(=O)N[C@@H](CCCNC(=N)N)C(=O)N1CCC[C@H]1C(=O)N[C@@H](CCCNC(=N)N)C(=O)N[C@H](C(=O)N1CCC[C@H]1C(=O)N1CCC[C@H]1C(=O)O)[C@@H](C)CC)C(C)C [VicBac[1-20]] (H-RRIRRPRLPRPRVPRPRIPP-OH; N-terminus and C-terminus assumed),–,–,–,–,4 µM,8 µM,64 µM,16 µM,> 64 µM,8 µM
